Measured values as given in ChEMBL document CHEMBL2074180, “Human P-glycoprotein transports cyclosporin A and FK506” (J Biol Chem, 1993).

Molecular target: ATP-dependent translocase ABCB1 (Homo sapiens, UniProt P08183)
Test: TP_TRANSPORTER: transepithelial transport of tacrolimus (basal to apical) (Tacrolimus: 6.2 uM) in MDR1-expressing LLC-PK1 cells
Format: functional, cell-based
Details: pig, llc-pk1, 6.2 µM

ATP-dependent translocase ABCB1, sequence (P08183 whole entry): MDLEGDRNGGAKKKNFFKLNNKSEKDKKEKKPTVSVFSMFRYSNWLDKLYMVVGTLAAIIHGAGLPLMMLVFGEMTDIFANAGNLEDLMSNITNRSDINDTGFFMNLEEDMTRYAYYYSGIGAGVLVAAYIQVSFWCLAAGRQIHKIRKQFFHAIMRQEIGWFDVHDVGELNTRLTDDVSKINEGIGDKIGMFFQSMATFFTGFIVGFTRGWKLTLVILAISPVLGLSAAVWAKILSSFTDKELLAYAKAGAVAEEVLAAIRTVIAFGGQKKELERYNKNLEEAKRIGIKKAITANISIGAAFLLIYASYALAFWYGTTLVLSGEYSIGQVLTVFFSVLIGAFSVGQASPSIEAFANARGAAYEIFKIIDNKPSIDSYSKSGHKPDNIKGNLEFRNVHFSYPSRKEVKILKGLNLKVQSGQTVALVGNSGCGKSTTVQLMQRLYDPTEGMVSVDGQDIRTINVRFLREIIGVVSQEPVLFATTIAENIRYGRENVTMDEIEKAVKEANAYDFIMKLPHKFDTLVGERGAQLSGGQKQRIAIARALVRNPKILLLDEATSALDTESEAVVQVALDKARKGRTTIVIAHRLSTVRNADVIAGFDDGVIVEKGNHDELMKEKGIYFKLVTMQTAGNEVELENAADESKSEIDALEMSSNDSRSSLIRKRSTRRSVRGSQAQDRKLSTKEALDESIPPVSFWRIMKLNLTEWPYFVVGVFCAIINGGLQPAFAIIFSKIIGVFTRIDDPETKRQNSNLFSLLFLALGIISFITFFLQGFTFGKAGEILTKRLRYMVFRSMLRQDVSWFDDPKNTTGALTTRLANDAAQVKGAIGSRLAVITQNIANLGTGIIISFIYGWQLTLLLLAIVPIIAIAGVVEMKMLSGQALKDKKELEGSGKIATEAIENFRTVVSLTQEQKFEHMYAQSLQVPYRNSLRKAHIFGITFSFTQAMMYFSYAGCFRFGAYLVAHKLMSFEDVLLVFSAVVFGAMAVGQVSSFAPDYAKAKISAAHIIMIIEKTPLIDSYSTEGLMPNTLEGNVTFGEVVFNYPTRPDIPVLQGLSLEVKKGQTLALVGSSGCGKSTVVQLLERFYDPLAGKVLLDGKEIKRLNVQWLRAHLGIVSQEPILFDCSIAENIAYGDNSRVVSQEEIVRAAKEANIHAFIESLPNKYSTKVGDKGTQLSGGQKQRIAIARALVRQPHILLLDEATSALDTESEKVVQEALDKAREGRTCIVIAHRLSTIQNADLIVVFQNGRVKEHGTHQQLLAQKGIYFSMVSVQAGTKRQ

SMILES: C=CC[C@@H]1/C=C(\C)C[C@H](C)C[C@H](OC)[C@H]2O[C@@](O)(C(=O)C(=O)N3CCCC[C@H]3C(=O)O[C@H](/C(C)=C/[C@@H]3CC[C@@H](O)[C@H](OC)C3)[C@H](C)[C@@H](O)CC1=O)[C@H](C)C[C@@H]2OC [TACROLIMUS ANHYDROUS]
- Activity: inhibitor [+]
